Source: patent US9255094B2, “Pyrido[4,3-B]indoles and methods of use” (Medivation Technologies, Inc., priority 2009, dated 2016)

Key:
[1] = target: T1, human recombinant adrenergic α2A receptor (Homo sapiens, UniProt P08913); experiment: Adrenergic α2A radioligand binding assay ([3H]MK-912); details: 1 nM [3H]MK-912, insect Sf9 cells; for inhibition at 0.1 µM: compound at 0.1 μM, read-out: Percent Inhibition of ligand binding, Adrenergic (0.1 μM) a2A; for inhibition at 1 µM: compound at 1 μM, read-out: Percent Inhibition of ligand binding, Adrenergic (1 μM) a2A
T1 construct: expressed in transfected cells; host or cells: insect Sf9 cells
T1 sequence (P08913 1-465): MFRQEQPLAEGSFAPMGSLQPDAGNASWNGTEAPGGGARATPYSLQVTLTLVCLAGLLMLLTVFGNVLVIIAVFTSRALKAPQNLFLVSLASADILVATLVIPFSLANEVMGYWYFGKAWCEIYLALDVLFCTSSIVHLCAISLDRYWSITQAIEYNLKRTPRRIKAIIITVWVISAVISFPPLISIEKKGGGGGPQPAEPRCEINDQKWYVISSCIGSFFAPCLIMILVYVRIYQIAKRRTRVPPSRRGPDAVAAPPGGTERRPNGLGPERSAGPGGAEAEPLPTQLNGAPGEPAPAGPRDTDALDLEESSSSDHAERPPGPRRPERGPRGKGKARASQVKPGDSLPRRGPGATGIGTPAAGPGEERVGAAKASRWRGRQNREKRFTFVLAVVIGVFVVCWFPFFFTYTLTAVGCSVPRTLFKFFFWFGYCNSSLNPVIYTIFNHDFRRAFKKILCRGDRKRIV
Description: To evaluate in radioligand binding assays the activity of compounds of the invention, human recombinant adrenergic α2A receptor expressed in insect Sf9 cells (Uhlen S et al. J. Pharmacol. Exp. Ther. 271:1558, 1994) in a modified Tris-HCl buffer (50 mM Tris-HCl, pH 7.4, 12.5 mM MgCl2, 2 mM EDTA) was used. Compounds of invention were incubated with 1 nM [^3H]MK-912 for 60 min at 25° C. MK912 is (2S-trans)-1,3,4,5′,6,6′,7,12b-octahydro-1′,3′-dimethyl-spiro[2H-benzofuro[2,3-a]quinolizine-2,4′(1′H)-pyrimidin]-2′(3′H)-one hydrochloride Non-specific binding was estimated in the presence of 10 μM WB-4101 (2-(2,6-dimethoxyphenoxyethyl)aminomethyl-1,4-benzodioxane hydrochloride). Receptor proteins were filtered and washed, the filters were then counted to determine [^3H]MK-912 specifically bound.

[2] = target: T2, rat adrenergic α1A receptor (Rattus norvegicus, UniProt P43140); experiment: Adrenergic α1A radioligand binding assay ([3H]Prozosin); details: compound at 0.1 μM; 0.25 nM [3H]Prozosin; Wistar Rat submaxillary glands; read-out: Percent Inhibition of ligand binding, Adrenergic (0.1 μM) a1A
T2 construct: from tissue; host or cells: Wistar Rat submaxillary glands
T2 sequence (P43140 1-466): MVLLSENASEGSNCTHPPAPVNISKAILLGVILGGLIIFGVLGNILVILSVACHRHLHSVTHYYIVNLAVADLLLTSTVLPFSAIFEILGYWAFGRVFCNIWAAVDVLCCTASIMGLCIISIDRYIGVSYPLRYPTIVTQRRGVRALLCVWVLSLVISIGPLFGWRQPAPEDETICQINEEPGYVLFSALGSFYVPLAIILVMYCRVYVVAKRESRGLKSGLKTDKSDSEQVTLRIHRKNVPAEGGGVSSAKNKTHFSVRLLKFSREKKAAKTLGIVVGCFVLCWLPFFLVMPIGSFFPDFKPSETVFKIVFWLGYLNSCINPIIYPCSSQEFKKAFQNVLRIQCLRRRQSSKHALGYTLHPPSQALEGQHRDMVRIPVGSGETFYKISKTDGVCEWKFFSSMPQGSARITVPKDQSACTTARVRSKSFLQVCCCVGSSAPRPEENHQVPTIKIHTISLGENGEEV
Description: To evaluate in radioligand binding assays the activity of compounds of the invention, rat adrenergic α1A receptor obtained from Wistar Rat submaxillary glands (Michel, A. D. et al., Br. J. Pharmacol. 98:883, 1989) in a modified Tris-HCl buffer (50 mM Tris-HCl buffer, pH 7.4, 0.5 mM EDTA) is used. Compounds of the invention are incubated with 0.25 nM [^3H]Prozosin for 60 min at 25° C. Non-specific binding is estimated in the presence of 10 μM phentolamine. Receptor proteins are filtered and washed, the filters are then counted to determine [^3H]Prozosin specifically bound. Compounds of the invention are screened at 1 μM or lower, using 1% DMSO as vehicle. Compounds of the invention are tested in this biochemical assay and percent inhibition of specific binding is determined.

[3] = target: T3, human recombinant adrenergic α2B receptor (Homo sapiens, UniProt P18089); experiment: Adrenergic α2B radioligand binding assay ([3H]Rauwolscine); details: 2.5 nM [3H]Rauwolscine, CHO-K1 cells; for inhibition at 1 µM: compound at 1 μM, read-out: Percent Inhibition of ligand binding, Adrenergic (1 μM) a2B
T3 construct: expressed in transfected cells; host or cells: Chinese hamster ovary (CHO-K1) cells
T3 sequence (P18089 1-450): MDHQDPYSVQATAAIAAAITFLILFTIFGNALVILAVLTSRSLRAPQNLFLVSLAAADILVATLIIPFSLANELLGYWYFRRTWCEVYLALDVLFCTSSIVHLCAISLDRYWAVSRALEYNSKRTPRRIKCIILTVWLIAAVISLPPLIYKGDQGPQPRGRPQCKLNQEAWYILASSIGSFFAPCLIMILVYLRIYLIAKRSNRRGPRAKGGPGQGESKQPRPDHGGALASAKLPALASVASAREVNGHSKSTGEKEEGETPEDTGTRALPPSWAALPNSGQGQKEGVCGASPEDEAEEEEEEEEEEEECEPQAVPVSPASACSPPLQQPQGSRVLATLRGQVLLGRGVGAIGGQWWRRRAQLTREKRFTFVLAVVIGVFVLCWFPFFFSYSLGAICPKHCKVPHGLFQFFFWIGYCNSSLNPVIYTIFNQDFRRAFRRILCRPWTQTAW
Description: To evaluate in radioligand binding assays the activity of compounds of the invention, human recombinant adrenergic α2B receptor expressed in Chinese hamster ovary (CHO-K1) cells (Uhlen S et al., Eur. J. Pharmacol. 343(1):93, 1998) in a modified Tris-HCl buffer (50 mM Tris-HCl, pH 7.4, 12.5 mM MgCl2, 1 mM EDTA, 0.2% BSA) was used. Compounds of the invention were incubated with 2.5 nM [^3H]Rauwolscine for 60 min at 25° C. Non-specific binding was estimated in the presence of 10 μM Prozosin. Receptor proteins were filtered and washed, the filters were then counted to determine [^3H]Rauwolscine specifically bound.

[4] = target: T4, human recombinant serotonin (5-Hydroxytryptamine) 5-HT6 receptor (Homo sapiens, UniProt P50406); experiment: Serotonin 5-HT6 radioligand binding assay ([3H]LSD); details: HeLa cells; for inhibition at 1 µM: compound at 1 μM, read-out: Percent Inhibition of ligand binding, Serotonin (1 μM) 5-HT6; for inhibition at 0.1 µM: compound at 0.1 μM, read-out: Percent Inhibition of ligand binding, Serotonin (0.1 μM) 5-HT6
T4 construct: expressed in transfected cells; host or cells: human HeLa cells
Description: Compounds of the invention were incubated with 1.5 nM [3H]Lysergic acid diethylamide (LSD) for 120 min at 37° C. […] Receptor proteins were filtered and washed, the filters were then counted to determine [3H]LSD specifically bound. Compounds were screened at 1 μM or lower, using 1% DMSO as vehicle. Biochemical assay results are presented as the percent inhibition of specific binding in Table 4.

T4 sequence (P50406 whole entry): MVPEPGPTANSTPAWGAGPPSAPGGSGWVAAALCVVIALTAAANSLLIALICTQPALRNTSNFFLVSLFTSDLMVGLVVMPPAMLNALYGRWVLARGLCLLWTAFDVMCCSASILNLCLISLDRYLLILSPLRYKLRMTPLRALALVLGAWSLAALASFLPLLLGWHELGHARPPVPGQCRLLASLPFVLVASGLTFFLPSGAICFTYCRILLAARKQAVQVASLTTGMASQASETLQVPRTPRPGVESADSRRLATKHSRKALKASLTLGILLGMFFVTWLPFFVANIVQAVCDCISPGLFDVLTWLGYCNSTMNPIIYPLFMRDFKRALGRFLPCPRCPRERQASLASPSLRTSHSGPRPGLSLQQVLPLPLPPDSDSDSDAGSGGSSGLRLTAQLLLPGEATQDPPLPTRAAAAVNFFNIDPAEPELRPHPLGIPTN

Work on `Cc1ccc2c(c1)c1c(n2CC(O)c2ccncc2)CCN(C)C1` (centres unmarked) [Compound 1-8, 2-(2,8-dimethyl-3,4-dihydro-1H-pyrido[4,3-b]indol-5(2H)-yl)-1-(pyridin-4-yl)ethanol] yielded an inhibition at 0.1 µM [1] of 37% and an inhibition at 0.1 µM [2] of 9%.
`CN1CCc2c(c3cc(Cl)ccc3n2CC(O)c2ccncc2)C1` (centres unmarked) [Compound 1-11, 2-(8-chloro-2-methyl-3,4-dihydro-1H-pyrido[4,3-b]indol-5(2H)-yl)-1-(pyridin-4-yl)ethanol] was tested, and the inhibition at 0.1 µM [1] was 41% and the inhibition at 0.1 µM [2] was 12%.
`Cc1ccc2c(c1)c1c(n2CCc2ccc(C)nc2)CCN(CCC#N)C1` [Compound 1-34, 3-(8-methyl-5-(2-(6-methylpyridin-3-yl)ethyl)-3,4-dihydro-1H-pyrido[4,3-b]indol-2(5H)-yl)propanenitrile] was tested, and the inhibition at 1 µM [1] was 3%, the inhibition at 1 µM [3] was 23% and the inhibition at 1 µM [4] was 6%.
Work on `Cc1ccc2c(c1)c1c(n2CC(=O)c2ccccc2)CCN(C)C1` [Compound 1-35, 2-(2,8-dimethyl-3,4-dihydro-1H-pyrido[4,3-b]indol-5(2H)-yl)-1-phenylethanone] yielded an inhibition at 1 µM [1] of 19%, an inhibition at 1 µM [3] of 59% and an inhibition at 1 µM [4] of 14%.
In the case of `CN1CCc2c(c3cc(Cl)ccc3n2CC(=O)c2ccccc2)C1` [Compound 1-36, 2-(8-chloro-2-methyl-3,4-dihydro-1H-pyrido[4,3-b]indol-5(2H)-yl)-1-phenylethanone], the inhibition at 1 µM [1] is reported as 43%, the inhibition at 1 µM [3] is reported as 92% and the inhibition at 1 µM [4] is reported as 71%.
`CN1CCc2c(c3cc(Cl)ccc3n2CC(=O)c2ccc(F)cc2)C1` [Compound 1-37, 2-(8-chloro-2-methyl-3,4-dihydro-1H-pyrido[4,3-b]indol-5(2H)-yl)-1-(4-fluorophenyl)ethanone] was tested, and the inhibition at 1 µM [1] was 87%, the inhibition at 1 µM [3] was 87% and the inhibition at 1 µM [4] was 71%.
`CN1CCc2c(c3cc(Cl)ccc3n2CC(=O)c2ccc(Cl)cc2)C1` [Compound 1-38, 2-(8-chloro-2-methyl-3,4-dihydro-1H-pyrido[4,3-b]indol-5(2H)-yl)-1-(4-chlorophenyl)ethanone] showed an inhibition at 1 µM [1] of 90%, an inhibition at 1 µM [3] of 92% and an inhibition at 1 µM [4] of 57%.
Compound `Cc1ccc2c(c1)c1c(n2CC(=O)c2ccc(F)cc2)CCN(C)C1` [Compound 1-39, 2-(2,8-dimethyl-3,4-dihydro-1H-pyrido[4,3-b]indol-5(2H)-yl)-1-(4-fluorophenyl)ethanone] has an inhibition at 1 µM [1] of 88%, an inhibition at 1 µM [3] of 92% and an inhibition at 1 µM [4] of 62%.
Compound `Cc1ccc2c(c1)c1c(n2CCc2ccc(CCCN)nc2)CCN(C)C1` [Compound 1-40, 3-(5-(2-(2,8-dimethyl-3,4-dihydro-1H-pyrido[4,3-b]indol-5(2H)-yl)ethyl)pyridin-2-yl)propan-1-amine] has an inhibition at 1 µM [1] of 31%, an inhibition at 1 µM [3] of 63% and an inhibition at 1 µM [4] of 24%.
With `Cc1ccc2c(c1)c1c(n2CCc2ccc(C(F)(F)F)nc2)CCNC1` [Compound 1-41, 8-methyl-5-(2-(6-(trifluoromethyl)pyridin-3-yl)ethyl)-2,3,4,5-tetrahydro-1H-pyrido[4,3-b]indole] the inhibition at 1 µM [1] was 58%, the inhibition at 1 µM [3] was 89% and the inhibition at 1 µM [4] was 14%.
`Cc1ccc2c(c1)c1c(n2CCc2ccc(C)nc2)CCN(CCCO)C1` [Compound 1-42, 3-(8-methyl-5-(2-(6-methylpyridin-3-yl)ethyl)-3,4-dihydro-1H-pyrido[4,3-b]indole-2(5H)-yl)propan-1-ol] showed an inhibition at 1 µM [1] of 35%, an inhibition at 1 µM [3] of 39% and an inhibition at 1 µM [4] of 43%.
Work on `Cc1ccc2c(c1)c1c(n2CC(C)c2ccncc2)CCN(C)C1` (centres unmarked) [Compound 1-46, 2,8-dimethyl-5-(2-(pyridin-4-yl)propyl)-2,3,4,5-tetrahydro-1H-pyrido[4,3-b]indole] yielded an inhibition at 0.1 µM [2] of 12% and an inhibition at 0.1 µM [4] of 45%.
Compound `Cc1ccc2c(c1)c1c(n2CC(C)(C)c2ccncc2)CCN(C)C1` [Compound 1-49, 2,8-dimethyl-5-(2-methyl-2-(pyridin-4-yl)propyl)-2,3,4,5-tetrahydro-1H-pyrido[4,3-b]indole] has an inhibition at 0.1 µM [2] of 13% and an inhibition at 0.1 µM [4] of 38%.
`CC[C@@](O)(Cn1c2c(c3cc(C)ccc31)CN(C)CC2)c1ccncc1` [Compound 1-62, (S)-1-(2,8-Dimethyl-3,4-dihydro-1H-pyrido[4,3-b]indol-5(2H)-yl)-2-(pyridine-4-yl)butan-2-ol] was tested, and the inhibition at 0.1 µM [1] was 10%, the inhibition at 0.1 µM [2] was 10% and the inhibition at 0.1 µM [4] was 28%.
`CC[C@@](O)(Cn1c2c(c3cc(C)ccc31)CN(C)CC2)c1ccc(F)cc1` [Compound 1-66, (S)-1-(2,8-dimethyl-3,4-dihydro-1H-pyrido[4,3-b]indol-5(2H)-yl)-2-(4-fluorophenyl)butan-2-ol] showed an inhibition at 0.1 µM [1] of 29%, an inhibition at 0.1 µM [2] of -1% and an inhibition at 0.1 µM [4] of 72%.
Compound `CCCC[C@@](O)(Cn1c2c(c3cc(Cl)ccc31)CN(C)CC2)c1ccc(F)cc1` [Compound 1-67, (S)-1-(8-chloro-2-methyl-3,4-dihydro-1H-pyrido[4,3-b]indol-5(2H)-yl)-2-(4-fluorophenyl)hexan-2-ol] has an inhibition at 0.1 µM ([3]; compound at 0.1 μM, read-out: Percent Inhibition of ligand binding, Adrenergic (0.1 μM) a2B) of -3%, an inhibition at 0.1 µM [2] of 2% and an inhibition at 0.1 µM [4] of 25%.
